Measurements taken from patent publication US10463782B2, “Patient-based parameter generation systems for medical injection procedures” (BAYER HEALTHCARE LLC, priority 2006, dated 2019).

Assay: cardiovascular CTA (Siemens Sensation 64) contrast enhancement, generated protocol vs standard biphasic protocol
Assay type: in vivo, patients
Procedure: It was expected that left and right heart contrast enhancement would be more consistent across subjects using the cardiac protocol generation system/method of the present invention as compared to typical methods of establishing protocol parameters. To evaluate the level and consistency of enhancement, cardiac CE CT data from a pilot study were analyzed. Two anatomic regions of interest (the descending aorta and the right ventricle) were identified in each subject's scan (reconstructed at 60% RR interval) via a semi-automatic segmentation algorithm. For every set of axial slices acquired at a single time point, the mean enhancement within each of the regions was computed, yielding time enhancement curves. The influence of a per-patient, contrast injection protocol having a dilution phase on right heart enhancement during cardiac CTA was also studied. Sufficient enhancement for assessment of the right heart allows for the assessment of right heart pathology. […] Standard Errors in the other groups were: uni-phasic (+/−39 HU)), bi-phasic (+/−39 HU), and fixed dilution phase (+/−28 HU). […] Left Heart Enhancement averaged 325 HU+/−80
A study of 20 patients undergoing cardiovascular CTA (Siemens Sensation 64) using injection protocols generated using the system/method of the present invention (Iopimidol 370) and 19 control subjects with a standard biphasic protocol (Iopimidol 370 contrast volume=scan duration×5 ml/s, followed by a 40 ml saline flush) was made. All values of the time enhancement curves were pooled across subjects, and the two groups were compared via unpaired t-tests. The mean enhancements for the protocols generated by the present invention and the biphasic protocols were 357±69 HU and 323±64 HU, respectively (p=10^−8). The right ventricle mean enhancements were 318±85 HU and 212±96 HU (p=10^−21).

C[C@H](O)C(=O)Nc1c(I)c(C(=O)NC(CO)CO)c(I)c(C(=O)NC(CO)CO)c1I [Iopimidol 370, Iopimidol]
right ventricle mean enhancement (FIG. 35C) (protocols generated by the present invention, 20 patients): 318±85 HU | mean enhancement (descending aorta, FIG. 35B) (protocols generated by the present invention, 20 patients, time enhancement curve values pooled across subjects): 357±69 HU | mean enhancement (descending aorta, FIG. 35B) (standard biphasic protocol (contrast volume = scan duration x 5 ml/s, then 40 ml saline flush), 19 control subjects): 323±64 HU | right ventricle mean enhancement (FIG. 35C) (standard biphasic protocol, 19 control subjects): 212±96 HU
